According to US20190209506A1, “METHODS OF REDUCING OR PREVENTING OXIDATION OF LDL OR LIPID MEMBRANES IN A SUBJECT IN NEED THEREOF” (Amarin Pharmaceuticals Ireland Limited, priority 2018, published 2019):
“And” between values parts separate entries of the source, which are not always exact repeats. Identical values can stand only once.

What was measured:
[1] = LOOH formation in membrane vesicles, fatty acid comparison (Example 16); type: biochemical; details: 5 μM
Procedure: Iodometric approaches were used to measure in vitro LOOH formation in membrane vesicles reconstituted as binary mixtures of cholesterol and dilinoleoyl phosphatidylcholine. Vesicles were prepared at a cholesterol-to-phospholipid mole ratio of 0.6:1 and subjected to autoxidation (e.g., lipid oxidation) at 37° C. Lipid oxidation was stimulated with 0.1 μM copper sulfate for 48 hours. All FAs were delivered at 5 and 10 μM.

[2] = Membrane cholesterol domain structural integrity, x-ray diffraction (Example 9); details: C/P 1.5:1
Procedure: Multilamellar vesicles (MLVs) were prepared as binary mixtures that include palmitoyloleoylphosphatidylcholine (POPC) (1.0 mg total phospholipid per sample) and cholesterol at an elevated cholesterol-to-phospholipid (C/P) mole ratio of 1.5:1. […] Samples were shell-dried under nitrogen gas and placed under vacuum for 3 hours to remove residual solvent at room temperature. After desiccation, each sample was resuspended in saline buffer (0.5 mM HEPES, 154 mM NaCl, pH 7.3) to yield a final phospholipid concentration of 2.5 mg/mL. Lipid suspensions were then vortexed for 3 minutes at ambient temperature to form MLVs.
Briefly, a 100 μL aliquot of each MLV preparation (containing 250 μg MLV) was transferred to a Lucite® sedimentation cell fitted with an aluminum foil substrate designed to collect MLVs into a single membrane pellet upon centrifugation. Samples were then loaded into a Sorvall AH-629 swinging bucket rotor (DuPont Corp., Wilmington, Del.) and centrifuged at 35,000 g, 5° C., for 90 minutes.
After centrifugal orientation, sample supernatants were aspirated and aluminum foil substrates, each supporting a single membrane pellet, were removed from the sedimentation cells. Sample pellets were dried for 5-10 minutes at ambient conditions, mounted onto curved glass supports, and placed in hermetically-sealed, brass or glass containers (for immediate analysis or temporary storage, respectively). All x-ray diffraction experiments were conducted at 20° C., 74% relative humidity. The latter was established by exposing membrane samples to saturated solutions of […] (K2C4H4O6.½H2O) for at least 1 hour prior to experimental analysis.
Oriented membrane samples were aligned at grazing incidence with respect to a collimated, mono-chromatic CuKα x-ray beam (Kα1 and Kα2 unresolved; λ=1.54 Å) produced by a Rigaku Rotaflex RU-200, high-brilliance microfocus generator (Rigaku-MSC, The Woodlands, Tex.) as previously described (Mason et al., Biophys. J., vol. 55(4), pages 769-778 (1989)). The samples were initially subjected to x-ray diffraction analysis at least 12 hours after formation of the membrane pellets and retested for up to several days. Analytical x-rays were generated by electron bombardment of a rotating copper anode and are filtered through a thin nickel foil to provide monochromatic radiation (λ=1.54 Å). Collimation of the x-ray beam was achieved using a single Franks mirror. Diffraction data were collected on a one-dimensional, position-sensitive electron detector (Hecus X-ray Systems, Graz, Austria) at a sample-to-detector distance of 150 mm from the sample site.
The d-space for any given membrane multi bilayer is a measurement of the unit cell periodicity of the membrane lipid bilayer (e.g., the distance from the center of one lipid bilayer to the next including surface hydration), and is calculated from Bragg's Law, hλ=2d sin θ, where h is the diffraction order, λ is the wavelength of the x-ray radiation (1.54 Å), d is the membrane lipid bilayer unit cell periodicity, and θ is the Bragg angle equal to one-half the angle between the incident beam and scattered beam.
The presence of cholesterol domains in a given membrane sample results in the production of distinct Bragg (diffraction) peaks having singular periodicity values of 34 and 17 Å (typically referred to as first- and second-order cholesterol domain peaks). Under the specific temperature and relative humidity conditions established for these experiments, the second-order, 17 Å cholesterol domain peak was well-delineated from other, neighboring cholesterol and phospholipid diffraction peaks and was thus used to quantitate relative cholesterol domain peak intensity. Routines written in Origin 8.6 (OriginLab Corporation, Northampton, Mass.) were used to determine total peak area (associated with all diffraction peaks in a given pattern) against which the second-order cholesterol domain peak was normalized.

human sdLDL = assay: Copper-induced sdLDL oxidation (Example 12); type: biochemical; details: 10.0 μM; copper-induced oxidation 1 hour
Procedure: All samples, with the exception of non-oxidized sdLDL controls, were subjected to copper-induced oxidation for 1 hour. Human umbilical vein endothelial cells (HUVECs) were incubated with the various sdLDL samples, stimulated with calcium, and monitored for nitric oxide (NO) and peroxynitrite (ONOO^−) release using nanosensor technology.

human LDL = assay: Copper-induced LDL oxidation, dose and time dependence, MDA (Example 17); type: biochemical
Procedure: LDL was isolated from human plasma by isopycnic centrifugation, separated into test samples of 100 μg/mL, and incubated at 37° C. for 30 min in the absence (vehicle) or presence of EPA over a range of concentrations of 1 to 10 μM. The samples were subsequently subjected to copper-induced oxidation. Following the copper-induced oxidation, LDL oxidation was measured over the course of six hours. Tables 8 and 9 enumerate the changes in MDA concentration expressed as molar equivalents for each of the vehicle and EPA test samples as a function of time (i.e., at 0 hours, 1 hour, 2 hours, 2.5 hours, and 3 hours).

CC/C=C\C/C=C\C/C=C\C/C=C\C/C=C\CCCC(=O)O [EPA, cis-5,8,11,14,17-eicosapentaenoic acid]
activity of EPA greater than ALA by [1]: 213%
activity of EPA greater than DHA by [1]: 279%
activity of EPA greater than DPA by [1]: 121%
activity of EPA greater than ETE by [1]: 174%
reduction of LOOH levels compared to the vehicle ([1]; 0.1 μM copper sulfate, 48 hours): 77%
% change Vs control (cholesterol domain peak intensity) ([2]; D/P mole ratio 1:30): −65.5 ± 17.1%
Relative Cholesterol Domain Peak Intensity ([2]; D/P mole ratio 1:30): 14.6±5
reduction in cholesterol domain peaks compared to vehicle ([2]; D/P mole ratio 1:30): 65%
% change (vs. Control) ([2]; D/P mole ratio 1:60): −30.2 ± 27.9%
Relative Cholesterol Domain Peak Intensity ([2]; D/P mole ratio 1:60): 29.5 ± 10.9
% change (vs. Control) ([2]; D/P mole ratio 1:90): −15.0 ± 12.6%
Relative Cholesterol Domain Peak Intensity ([2]; D/P mole ratio 1:90): 36.0 ± 3.1
reduction of sdLDL oxidation compared to vehicle (human sdLDL): > 90%
MDA Equivalent (human LDL; EPA 1.0 μM, 0 Hour): 0.24 µM and 0.26 µM
MDA Equivalent (human LDL; EPA 1.0 μM, 1 Hour): 3.85 µM and 3.14 µM and 2.87 µM
MDA Equivalent (human LDL; EPA 1.0 μM, 2 Hour): 10.33 µM and 10.92 µM and 10.63 µM
MDA Equivalent (human LDL; EPA 1.0 μM, 2.5 Hour): 10.60 µM and 10.92 µM and 10.65 µM
MDA Equivalent (human LDL; EPA 1.0 μM, 3 Hour): 9.44 µM and 9.95 µM and 9.93 µM
MDA Equivalent (human LDL; EPA 1.0 μM, 3.5 Hour): 10.13 µM and 10.87 µM
MDA Equivalent (human LDL; EPA 1.0 μM, 4 Hour): 8.93 µM and 9.39 µM
MDA Equivalent (human LDL; EPA 1.0 μM, 6 Hour): 9.79 µM and 10.10 µM
MDA Equivalent (human LDL; EPA 2.0 μM, 0 Hour): 0.25 µM and 0.26 µM and 0.19 µM
MDA Equivalent (human LDL; EPA 2.0 μM, 1 Hour): 1.15 µM and 1.04 µM
MDA Equivalent (human LDL; EPA 2.0 μM, 2 Hour): 7.34 µM and 7.35 µM and 7.67 µM
MDA Equivalent (human LDL; EPA 2.0 μM, 2.5 Hour): 9.45 µM and 9.62 µM and 9.60 µM
MDA Equivalent (human LDL; EPA 3.0 μM, 0 Hour): 0.21 µM and 0.22 µM
MDA Equivalent (human LDL; EPA 3.0 μM, 1 Hour): 0.56 µM and 0.57 µM and 0.53 µM
MDA Equivalent (human LDL; EPA 3.0 μM, 2 Hour): 1.72 µM and 1.78 µM and 1.74 µM
MDA Equivalent (human LDL; EPA 3.0 μM, 2.5 Hour): 3.09 µM and 3.01 µM and 2.91 µM
MDA Equivalent (human LDL; EPA 3.5 μM, 0 Hour): 0.17 µM and 0.26 µM and 0.29 µM
MDA Equivalent (human LDL; EPA 3.5 μM, 2 Hour): 1.04 µM and 1.05 µM and 0.90 µM
MDA Equivalent (human LDL; EPA 3.5 μM, 2.5 Hour): 1.16 µM and 1.43 µM and 0.95 µM
MDA Equivalent (human LDL; EPA 4.0 μM, 0 Hour): 0.19 µM and 0.21 µM and 0.22 µM
MDA Equivalent (human LDL; EPA 4.0 μM, 1 Hour): 0.37 µM and 0.41 µM and 0.40 µM
MDA Equivalent (human LDL; EPA 4.0 μM, 2 Hour): 1.00 µM and 0.78 µM and 0.71 µM
MDA Equivalent (human LDL; EPA 4.0 μM, 2.5 Hour): 1.26 µM and 0.94 µM and 0.80 µM
MDA Equivalent (human LDL; EPA 4.5 μM, 0 Hour): 0.28 µM and 0.17 µM and 0.18 µM
MDA Equivalent (human LDL; EPA 4.5 μM, 1 Hour): 0.28 µM and 0.30 µM and 0.21 µM
MDA Equivalent (human LDL; EPA 4.5 μM, 2 Hour): 0.38 µM and 0.50 µM and 0.44 µM
MDA Equivalent (human LDL; EPA 4.5 μM, 2.5 Hour): 0.36 µM and 0.19 µM and 0.31 µM
MDA Equivalent (human LDL; EPA 5.0 μM, 0 Hour): 0.19 µM and 0.26 µM and 0.27 µM
MDA Equivalent (human LDL; EPA 5.0 μM, 2 Hour): 0.35 µM and 0.33 µM and 0.30 µM
MDA Equivalent (human LDL; EPA 5.0 μM, 2.5 Hour): 0.22 µM and 0.24 µM and 0.21 µM
MDA Equivalent (human LDL; EPA 10.0 μM, 0 Hour): 0.21 µM and 0.24 µM and 0.29 µM
MDA Equivalent (human LDL; EPA 10.0 μM, 1 Hour): 0.12 µM and 0.06 µM
MDA Equivalent (human LDL; EPA 10.0 μM, 2 Hour): 0.27 µM and 0.29 µM and 0.23 µM
MDA Equivalent (human LDL; EPA 10.0 μM, 2.5 Hour): 0.01 µM and 0.02 µM
inhibition of LDL oxidation (human LDL; above 7.0 μM, through 6 hours): > 88%
IC50 (human LDL; at 6 hours, read-out: half-maximum concentration of inhibition of LDL oxidation): 5 µM
time up to which oxidation was inhibited (human LDL; concentrations ≤3 μM): up to 4 hours
